As a reminder, the pIC50 is the IC50 on a negative log10 scale, so that one unit is a factor of ten. Usually LD50 stands for the dose expected to kill half of the subjects tested.

pIC50: −log10 of the molar value.

Data set [1] relates to HL-60 (promyelocytic leukemia). Put plainly: Sulforhodamine B cytotoxicity assay, HL-60. It is filed as cell-based. The conditions noted are these: Homo sapiens, transformed, 72 hours. The procedure:
(§1) 1. Preparation of target cells in 96-well plates
(§2) 2. Preparation of sample drugs and toxic control a. Stock drug solutions were prepared by dissolving drug in the appropriate solvent (determined during chemical characterization studies) and sterile filtering the drug-solvent solution through a sterile 0.2 μ filter unit. An aliquot was taken from each filtered drug solution and the O.D. was measured to determine the drug concentration. […]
(§3) b. Dilute the stock drug solution prepared above with T.C. medium to the desired initial concentration (10^-2 -10^-4 M). A minimum volume of 220 μL of diluted drug is required per 96-well plate used in the assay.
(§4) 3. Addition of Sample Compounds and Controls to 96-well Plates b. Add 100 μL of the initial .compound dilution to adjacent duplicate wells in Columns #2. (Four materials can be tested in duplicate per 96-well plate.) c. Remove 10 μL of diluted compound from the wells in Column #2 and transfer to the corresponding wells in Column #3. Mix by pipetting up and down gently approximately five times. d. Transfer 10 μL to the appropriate wells in Column #4 and continue to make […] dilutions of compound across the plate through Column #12. f. Incubate (37° C., 5-10 percent CO2 in humidified incubator) plates for a total of 72 hours. […]
(§5) IC50 values; i.e., the concentration of Compound required to kill one-half of the treated cells, were then calculated. […]
A general note: In SRB staining, fixed cells bind dye roughly in proportion to their protein.

For data set [2], the system named is UCLA-P3 (lung carcinoma). Description: Sulforhodamine B cytotoxicity assay, UCLA-P3. As to conditions: Homo sapiens, UCLA P-3, transformed, 72 hours. It is filed as cell-based. The procedure: as §1, §2, §3, §4
(§6) IC50 values; i.e., the concentration of Compound required to kill one-half of the treated cells, were then calculated.

Data set [3] relates to SK-Mel-28 (melanoma). Put plainly: Sulforhodamine B cytotoxicity assay, SK-Mel-28. It is filed as cell-based. As to conditions: Homo sapiens, transformed, 72 hours. The procedure: as §1, §2, §3, §4, §5
In data set [4] the test system is HT-29 (colon carcinoma). Description: Sulforhodamine B cytotoxicity assay, HT-29. As to conditions: Homo sapiens, transformed, 72 hours. Format: cell-based. The procedure: as §1, §2, §3, §4, §5
Data set [5] deals with EMT-6 mammary tumor cells. Put plainly: In vivo mouse study, EMT-6 mammary tumor. The procedure:
FIG. 1 is a graph showing the average tumor size in 6-10 week old female Balb/c BYJ mice inoculated with EMT-6 mammary tumor cells. Control mice (open squares) were treated with normal saline on days 1, 5 and 9 after inoculation. Study mice (X's) were treated with an equal volume of normal saline containing 15 mg/kg of Compound I on those same days post inoculation with the tumor cells.
The data of FIG. 1 illustrate an in vivo study using Compound 1. Here, groups of 6-10 week old, female Balb/c BYJ mice (obtained from The Scripps Research Institute breeding colony, La Jolla, Calif.) (8 per group) were inoculated with 5×10^5 cells of the EMT6 tumor cell line, a mammary tumor. The mice were then treated with normal saline (control) or normal saline containing 15 mg/kg of Compound 1 (study) on days 1, 5 and 9 after the inoculation.
The average tumor volume was then calculated for each group of mice.

Data set [6] deals with Ovcar-3 (ovarian carcinoma). Put plainly: Sulforhodamine B cytotoxicity assay, Ovcar-3. Format: cell-based. As to conditions: Homo sapiens, transformed, 72 hours. The procedure: as §1, §2, §3, §4, §5
The subject of data set [7] is HMEC (human mammary epithelial cells). Description: Sulforhodamine B cytotoxicity assay, HMEC. As to conditions: non-transformed, 72 hours. It is filed as cell-based. How it is done:
as §1, §2, §3, §4, §6

For data set [8], the system named is MCF-7 (breast carcinoma). Description: Sulforhodamine B cytotoxicity assay, MCF-7. It is filed as cell-based. The conditions noted are these: Homo sapiens, MCF7, transformed, 72 hours. The procedure: as §1, §2, §3, §4, §5
Data set [9] deals with P-388 (mouse leukemia). Description: Sulforhodamine B cytotoxicity assay, P-388. It is filed as cell-based. The conditions noted are these: P388, transformed, 72 hours. The procedure:
as §1, §2, §3, §4, §5

Data set [10] concerns CHO cells. Description: Sulforhodamine B cytotoxicity assay, CHO. It is filed as cell-based. As to conditions: Cricetulus griseus, non-transformed, 72 hours. The procedure: as §1, §2, §3, §4, §5
In data set [11] the test system is MOLT-4 (T cell leukemia). Put plainly: Sulforhodamine B cytotoxicity assay, MOLT-4. As to conditions: Homo sapiens, transformed, 72 hours. Format: cell-based. The procedure:
as §1, §2, §3, §4, §5

The test system of data set [12] is NHDF (normal human dermal fibroblasts). Put plainly: Sulforhodamine B cytotoxicity assay, NHDF. Format: cell-based. As to conditions: non-transformed, 72 hours. How it is done: as §1, §2, §3, §4, §6
In data set [13] the test system is transformed, cancerous cell lines. Put plainly: Cytotoxicity comparison with daunomycin, cancer cell lines. It is filed as cell-based. The procedure: SULFORHODAMINE B CYTOTOXICITY ASSAY
as §6
All other cells or cell lines were obtained from the American Type Culture Collection (ATCC) (all except CHO cells are human or mouse cancer cell lines as described by the ATCC).

Data set [14] deals with PBL (human peripheral blood lymphocytes). Description: Sulforhodamine B cytotoxicity assay, PBL. It is filed as cell-based. As to conditions: Lymphocyte, non-transformed, 72 hours. How it is done: as §1, §2, §3, §4, §6
Data set [15] is described as follows: LD50 in mice. The conditions noted are these: mouse, in vivo, ip, here found. The procedure: Daunomycin has a reported LD50 in mice of 20 mg/kg when administered intravenously (i.v.) and 5 mg/kg when administered intraperitoneally (i.p.) [Merck Index, 11th ed., Merck & Co., Inc., Rahway, N.J., page 445 (1989)].
For data set [16], the system named is Copan-1 (pancreatic carcinoma). Put plainly: Sulforhodamine B cytotoxicity assay, Copan-1. It is filed as cell-based. As to conditions: transformed, 72 hours. How it is done: as §1, §2, §3, §4, §5
In data set [17] the test system is mice. As to conditions: i.v., Merck Index; cited from earlier work.
Setting [18] is: first four cancer cell lines (two leukemias and two carcinomas).

Turning to `COc1cccc2c1C(=O)c1c(O)c3c(c(O)c1C2=O)C[C@@](O)(C(C)=O)C[C@@H]3O[C@H]1C[C@H](NC(=O)OCCS(=O)(=O)c2ccccc2)[C@H](O)[C@H](C)O1` [Compound 1, 8-Acetyl-10-[[3-[N-[2-(phenylsulfonyl)-ethoxycarbonyl]]amino-2,4,6-trideoxy-1-lyxo-hexapyranosyl]oxy]-7,8,9,10-tetrahydro-6,8,11-trihydroxy-1-methoxy-5,12-naphthacenedione], the pIC50 in data set [1] was 7.01; in data set [2], 5.51; in data set [3], 5.51; in [4] it was 6.11; in data set [6] it was 5.80; in data set [7], 4.89. Moreover, the pIC50 is 6.11 in data set [8]; 6.11 in data set [9]; 5.20 in data set [10]; 9.00 in [11]; 4.89 in data set [12]; 4.60 in data set [14]. In addition, the pIC50 in data set [16] is 6.11. Moreover, the “tumor burden of treated mice vs control” value in data set [5] (15 mg/kg on days 1, 5 and 9, between days 14 and 16) is “about one-third the tumor burden of the control group”. For the same compound, the “average tumor volume vs control” value in data set [5] (15 mg/kg on days 1, 5 and 9, by day 8 post inoculation) is recorded as “slight difference in the average volume of the tumors, with the study group having a lower tumor burden”. For the same compound, in [5] (15 mg/kg on days 1, 5 and 9, by day 20 post inoculation), the “control group's average tumor volume relative to study group” value is recorded as “about twice that of the study group”. In addition, in data set [5] (EMT-6 implanted in mice), the “growth of mammary tumors” value is reported as “retarded the growth of mammary tumors”. Moreover, the “cancer cell cytotoxicity difference between Compound 1 and daunomycin” value in [13] (cancer cells) is given as “no difference to a four-fold difference”. Also, the “potency relative to daunomycin” value in data set [13] (final two carcinoma cell lines) is listed as “about one-fourth the potency of daunomycin”; in [13] (setting [18]), “same potencies”; in [13] (second three cancer cell lines (melanoma, pancreatic carcinoma and mouse leukemia)), “about one-half the potency of daunomycin”. In data set [15], this compound registered an LD50 of approximately 35 mg/kg.
With `COc1cccc2c1C(=O)c1c(O)c3c(c(O)c1C2=O)C[C@@](O)(C(C)=O)C[C@@H]3O[C@H]1C[C@H](N)[C@H](O)[C@H](C)O1` [Daunomycin], the pIC50 in data set [1] is more than 7.01; in [2], 6.14; in data set [3] it was 5.80; in data set [4] it was 6.11; in data set [6], 6.41; in data set [7], 6.41. Moreover, the pIC50 in data set [8] was 6.11; in data set [9], 6.41; in data set [10], 6.41; in data set [11] it was 9.00; in [12], 6.72; in [14], 6.11. In [16], the pIC50 is 6.41. Also, the “potency relative to daunomycin” value in data set [13] (setting [18]) is listed as “same potencies”. Also, the LD50 in data set [17] was 20 mg/kg; in data set [15], approximately 12 mg/kg.

The values above are taken from patent publication US5643887A, “Daunomycin derivative with reduced cytotoxicity toward normal cells” (The Scripps Research Institute, priority 1995, dated 1997).
